Broadly, the IC50 is the concentration that inhibits the measured activity by half.

The text below walks through data of PMC3427421 (2012).

The experiment addresses NR2A-containing NMDA receptor (NR2A subunit) (Rattus norvegicus, UniProt Q00959). The format is cell-based.

Chain of NR2A-containing NMDA receptor (NR2A subunit) (Q00959 23-1464, other chains not shown): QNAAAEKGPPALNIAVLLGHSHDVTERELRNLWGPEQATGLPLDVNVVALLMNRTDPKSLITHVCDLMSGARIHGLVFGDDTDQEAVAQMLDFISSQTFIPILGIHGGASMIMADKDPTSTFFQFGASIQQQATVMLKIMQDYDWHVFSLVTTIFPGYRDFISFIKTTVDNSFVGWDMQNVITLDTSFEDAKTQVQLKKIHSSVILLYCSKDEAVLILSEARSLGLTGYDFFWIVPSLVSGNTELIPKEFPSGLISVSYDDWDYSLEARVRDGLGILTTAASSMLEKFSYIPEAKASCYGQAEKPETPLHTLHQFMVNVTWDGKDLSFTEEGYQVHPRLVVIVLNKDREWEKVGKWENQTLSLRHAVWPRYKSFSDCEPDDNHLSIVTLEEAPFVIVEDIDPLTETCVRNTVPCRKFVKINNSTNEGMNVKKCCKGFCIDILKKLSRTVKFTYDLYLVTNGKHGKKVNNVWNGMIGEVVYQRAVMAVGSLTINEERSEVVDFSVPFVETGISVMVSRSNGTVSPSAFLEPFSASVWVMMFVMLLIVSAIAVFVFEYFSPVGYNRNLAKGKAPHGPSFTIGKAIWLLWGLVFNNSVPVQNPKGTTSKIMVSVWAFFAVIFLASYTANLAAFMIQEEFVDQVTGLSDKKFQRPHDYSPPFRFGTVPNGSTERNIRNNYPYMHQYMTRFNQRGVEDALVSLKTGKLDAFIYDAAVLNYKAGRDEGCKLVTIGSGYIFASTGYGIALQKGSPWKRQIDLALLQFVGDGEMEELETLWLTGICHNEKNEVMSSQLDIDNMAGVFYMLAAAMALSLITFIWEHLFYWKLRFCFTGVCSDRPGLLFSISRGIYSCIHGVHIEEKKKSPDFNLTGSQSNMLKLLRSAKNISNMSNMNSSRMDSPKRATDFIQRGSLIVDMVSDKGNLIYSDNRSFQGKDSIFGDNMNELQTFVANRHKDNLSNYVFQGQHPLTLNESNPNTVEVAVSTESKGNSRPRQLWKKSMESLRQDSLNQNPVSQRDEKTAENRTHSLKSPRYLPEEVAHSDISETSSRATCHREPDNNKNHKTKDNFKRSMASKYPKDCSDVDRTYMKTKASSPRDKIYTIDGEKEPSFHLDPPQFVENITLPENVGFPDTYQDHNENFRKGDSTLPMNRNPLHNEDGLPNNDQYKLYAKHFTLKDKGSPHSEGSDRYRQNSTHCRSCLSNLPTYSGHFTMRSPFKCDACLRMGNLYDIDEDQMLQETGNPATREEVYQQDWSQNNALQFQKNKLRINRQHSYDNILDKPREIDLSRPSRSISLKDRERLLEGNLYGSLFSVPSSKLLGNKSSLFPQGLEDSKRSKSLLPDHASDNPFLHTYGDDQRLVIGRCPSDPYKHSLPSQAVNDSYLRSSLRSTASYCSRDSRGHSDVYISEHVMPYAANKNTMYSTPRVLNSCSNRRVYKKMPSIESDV

Regarding `C[C@H](NC(c1cccc2[nH]c(=O)c(=O)[nH]c12)P(=O)(O)O)c1ccc(Br)cc1` (stereo partly drawn) [PEAQX, ({[(1S)-1-(4-bromophenyl)ethyl]amino}-(2,3-dioxo-1,4-dihydroquinoxalin-5-yl)methyl)phosphonic acid], inhibition was half-maximal at 130 ± 40 nM (IC50).
